Laboratory results: patent US7960377B2 (priority 2008, dated 2011)

How the values were obtained:
human CB1 receptor = human CB1 receptor (Homo sapiens, UniProt P21554); assay: cell-based
rat CB2 receptor = target: T1, rat CB2 receptor (Rattus norvegicus, UniProt Q9QZN9); assay: cell-based; type: cell-based
T1 sequence (Q9QZN9 1-360): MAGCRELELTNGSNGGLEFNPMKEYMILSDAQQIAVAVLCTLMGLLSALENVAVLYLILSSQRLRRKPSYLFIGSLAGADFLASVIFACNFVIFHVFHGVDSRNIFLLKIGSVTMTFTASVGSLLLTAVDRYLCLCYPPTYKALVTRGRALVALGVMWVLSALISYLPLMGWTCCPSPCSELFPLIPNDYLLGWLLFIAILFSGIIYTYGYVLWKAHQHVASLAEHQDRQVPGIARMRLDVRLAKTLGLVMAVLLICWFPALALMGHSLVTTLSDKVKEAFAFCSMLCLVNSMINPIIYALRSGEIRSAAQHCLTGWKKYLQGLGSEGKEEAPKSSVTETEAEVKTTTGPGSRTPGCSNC

human CB1 receptor, sequence (P21554 whole entry): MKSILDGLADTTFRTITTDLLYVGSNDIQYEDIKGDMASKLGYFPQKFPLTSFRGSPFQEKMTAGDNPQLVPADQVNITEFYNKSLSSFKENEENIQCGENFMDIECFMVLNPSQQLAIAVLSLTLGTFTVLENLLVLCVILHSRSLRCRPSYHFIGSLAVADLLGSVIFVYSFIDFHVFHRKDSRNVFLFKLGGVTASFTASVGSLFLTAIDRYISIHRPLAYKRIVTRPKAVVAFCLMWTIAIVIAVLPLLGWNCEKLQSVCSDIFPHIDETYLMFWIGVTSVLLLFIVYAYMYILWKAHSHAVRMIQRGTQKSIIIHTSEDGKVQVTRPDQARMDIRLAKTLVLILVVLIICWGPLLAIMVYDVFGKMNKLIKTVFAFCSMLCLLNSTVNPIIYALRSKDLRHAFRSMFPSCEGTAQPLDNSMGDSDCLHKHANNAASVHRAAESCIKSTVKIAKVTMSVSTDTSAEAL

O=C(NCC1CC1)c1cnc2c(c1)N(S(=O)(=O)c1ccc(Cl)cc1)CCO2 [Example 33, 1-(4-chlorophenyl-sulfonyl)-N-(cyclopropyl-methyl)-2,3-dihydro-1H-pyrido[2,3-b][1,4]oxazine-7-carboxamide]
EC50 (human CB1 receptor): > 30 µM | EC50 (rat CB2 receptor): ≤ 30 nM

CC(C)(C)NC(=O)c1cnc2c(c1)N(S(=O)(=O)NCc1ccccc1)CCO2 [Example 178, 1-(N-benzylsulfamoyl)-N-tert-butyl-2,3-dihydro-1H-pyrido[2,3-b][1,4]oxazine-7-carboxamide]
EC50 (human CB1 receptor): > 30 µM | EC50 (rat CB2 receptor): ≤ 30 nM

CC(C)(C)NC(=O)c1cnc2c(c1)N(S(=O)(=O)N1CCC(F)CC1)CCO2 [Example 166, N-tert-butyl-1-(4-fluoropiperidin-1-ylsulfonyl)-2,3-dihydro-1H-pyrido[2,3-b][1,4]oxazine-7-carboxamide]
EC50 (human CB1 receptor): > 30 µM | EC50 (rat CB2 receptor): ≤ 30 nM

O=C(NC1(CO)CCC1)c1cnc2c(c1)N(S(=O)(=O)c1ccc(Cl)c(Cl)c1)CCO2 [Example 209, 1-(3,4-dichlorophenylsulfonyl)-N-(1-(hydroxymethyl)cyclobutyl)-2,3-dihydro-1H-pyrido[2,3-b][1,4]oxazine-7-carboxamide]
EC50 (human CB1 receptor): > 30 µM | EC50 (rat CB2 receptor): ≤ 30 nM

CC(C)(O)CNC(=O)c1cnc2c(c1)N(S(=O)(=O)c1ccc(Cl)cc1F)CCO2 [Example 97, 1-(4-chloro-2-fluorophenylsulfonyl)-N-(2-hydroxy-2-methylpropyl)-2,3-dihydro-1H-pyrido[2,3-b][1,4]oxazine-7-carboxamide]
EC50 (human CB1 receptor): > 30 µM | EC50 (rat CB2 receptor): ≤ 30 nM

COc1ccc(S(=O)(=O)N2CCOc3ncc(C(=O)NCC(C)(C)O)cc32)cc1Cl [Example 104]
EC50 (human CB1 receptor): > 30 µM | EC50 (rat CB2 receptor): ≤ 30 nM

CCc1noc(-c2cnc3c(c2)N(S(=O)(=O)c2ccccc2)CCO3)n1 [Example 210, 7-(3-ethyl-1,2,4-oxadiazol-5-yl)-1-(phenylsulfonyl)-2,3-dihydro-1H-pyrido[2,3-b][1,4]oxazine]
EC50 (human CB1 receptor): > 30 µM | EC50 (rat CB2 receptor): ≤ 30 nM

CC(C)(CO)NC(=O)c1cnc2c(c1)N(S(=O)(=O)c1ccc(Cl)cc1F)CCO2 [Example 96, 1-(4-chloro-2-fluorophenylsulfonyl)-N-(1-hydroxy-2-methylpropan-2-yl)-2,3-dihydro-1H-pyrido[2,3-b][1,4]oxazine-7-carboxamide]
EC50 (human CB1 receptor): > 30 µM | EC50 (rat CB2 receptor): ≤ 30 nM

CC1(C)CN=C(c2cnc3c(c2)N(S(=O)(=O)c2ccc(C(F)(F)F)cc2)CCO3)NC1 [Example 225, 7-(5,5-dimethyl-1,4,5,6-tetrahydropyrimidin-2-yl)-1-(4-(trifluoromethyl)phenylsulfonyl)-2,3-dihydro-1H-pyrido[2,3-b][1,4]oxazine]
EC50 (human CB1 receptor): > 30 µM | EC50 (rat CB2 receptor): > 30000 nM

CCC(CO)(CO)NC(=O)c1cnc2c(c1)N(S(=O)(=O)c1ccc(C(F)(F)F)cc1)CCO2 [Example 64, N-(1-hydroxy-2-(hydroxymethyl)butan-2-yl)-1-(4-(trifluoromethyl)phenylsulf-onyl)-2,3-dihydro-1H-pyrido[2,3-b][1,4]oxazine-7-carboxamide]
EC50 (human CB1 receptor): > 30 µM | EC50 (rat CB2 receptor): ≤ 30 nM

C[C@@H]1CCC[C@H](C)N1C(=O)c1cnc2c(c1)N(S(=O)(=O)c1ccc(C(F)(F)F)cc1)CCO2 [Example 197, (cis-2,6-dimethylpiperidin-1-yl)(1-(4-(trifluoromethyl)phenylsulf-onyl)-2,3-dihydro-1H-pyrido[2,3-b][1,4]oxazin-7-yl)methanone]
EC50 (human CB1 receptor): > 30 µM | EC50 (rat CB2 receptor): ≤ 30 nM

O=C(NC1CCCC1)c1cnc2c(c1)N(S(=O)(=O)c1ccc(C(F)(F)F)cc1)CCO2 [Example 27, N-cyclopentyl-1-(4-(trifluoromethyl)phenylsulf-onyl)-2,3-dihydro-1H-pyrido[2,3-b][1,4]oxazine-7-carboxamide]
EC50 (human CB1 receptor): > 30 µM | EC50 (rat CB2 receptor): ≤ 30 nM

CC(C)(C)NC(=O)c1cnc2c(c1)N(S(=O)(=O)c1ccccc1F)CCO2 [Example 22, N-tert-butyl-1-(2-fluorophenylsulfonyl)-2,3-dihydro-1H-pyrido[2,3-b][1,4]oxazine-7-carboxamide]
EC50 (human CB1 receptor): > 30 µM | EC50 (rat CB2 receptor): ≤ 30 nM

CCOC(=O)C1(NC(=O)c2cnc3c(c2)N(S(=O)(=O)c2ccc(C(F)(F)F)cc2)CCO3)CCC1 [Example 71, ethyl 1-(1-(4-(trifluoro-methyl)phenylsulfonyl)-2,3-dihydro-1H-pyrido-[2,3-b][1,4]oxazine-7-carboxamido)cyclo-butanecarboxylate]
EC50 (human CB1 receptor): > 30 µM | EC50 (rat CB2 receptor): ≤ 30 nM

CCOC(=O)C1(NC(=O)c2cnc3c(c2)N(S(=O)(=O)c2ccc(Cl)c(Cl)c2)CCO3)CCC1 [Example 139, ethyl 1-(1-(3,4-dichloro-phenylsulfonyl)-2,3-dihydro-1H-pyrido[2,3-b][1,4]oxazine-7-carboxamido)cyclobutane-carboxylate]
EC50 (human CB1 receptor): > 30 µM | EC50 (rat CB2 receptor): ≤ 30 nM

CC(C)(C)NC(=O)c1cnc2c(c1)N(S(=O)(=O)c1ccsc1)CCO2 [Example 90, N-tert-butyl-1-(thiophen-3-ylsulfonyl)-2,3-dihydro-1H-pyrido[2,3-b][1,4]oxazine-7-carboxamide]
EC50 (human CB1 receptor): > 30 µM | EC50 (rat CB2 receptor): ≤ 30 nM

CC1CCN(S(=O)(=O)N2CCOc3ncc(C(=O)NC(C)(C)CO)cc32)CC1 [Example 172, N-(1-hydroxy-2-methylpropan-2-yl)-1-(4-methylpiperidin-1-ylsulfonyl)-2,3-dihydro-1H-pyrido[2,3-b][1,4]oxazine-7-carboxamide]
EC50 (human CB1 receptor): > 30 µM | EC50 (rat CB2 receptor): ≤ 30 nM

COC(=O)[C@@H]1CCCCN1C(=O)c1cnc2c(c1)N(S(=O)(=O)c1ccc(C(F)(F)F)cc1)CCO2 [Example 68, (S)-methyl 1-(1-(4-(trifluoromethyl)phenylsulf-onyl)-2,3-dihydro-1H-pyrido[2,3-b][1,4]oxazine-7-carbonyl)piperidine-2-carboxylate]
EC50 (human CB1 receptor): > 30 µM | EC50 (rat CB2 receptor): ≤ 30 nM

COCC1CCCCN1C(=O)c1cnc2c(c1)N(S(=O)(=O)c1ccc(C(F)(F)F)cc1)CCO2 (racemic) [Example 74, +/− (2-(methoxymethyl)-piperidin-1-yl)(1-(4-(trifluoromethyl)phenylsulf-onyl)-2,3-dihydro-1H-pyrido[2,3-b][1,4]oxazin-7-yl)methanone]
EC50 (human CB1 receptor): > 30 µM | EC50 (rat CB2 receptor): ≤ 30 nM

CCC(C)(C)NC(=O)c1cnc2c(c1)N(S(=O)(=O)N1CCC(C)CC1)CCO2 [Example 171, 1-(4-methylpiperidin-1-ylsulfonyl)-N-tert-pentyl-2,3-dihydro-1H-pyrido[2,3-b][1,4]oxazine-7-carboxamide]
EC50 (human CB1 receptor): > 30 µM | EC50 (rat CB2 receptor): ≤ 30 nM

O=C(NC1CCCC1)c1cnc2c(c1)N(S(=O)(=O)c1ccccc1F)CCO2 [Example 23, N-cyclopentyl-1-(2-fluorophenylsulfonyl)-2,3-dihydro-1H-pyrido[2,3-b][1,4]oxazine-7-carboxamide]
EC50 (human CB1 receptor): > 30 µM | EC50 (rat CB2 receptor): ≤ 30 nM

CC(C)(CO)NC(=O)c1cnc2c(c1)N(S(=O)(=O)c1ccc(Cl)c(Cl)c1)CCO2 [Example 95, 1-(3,4-dichlorophenylsulfonyl)-N-(1-hydroxy-2-methylpropan-2-yl)-2,3-dihydro-1H-pyrido[2,3-b][1,4]oxazine-7-carboxamide]
EC50 (human CB1 receptor): > 30 µM | EC50 (rat CB2 receptor): ≤ 30 nM

Cc1csc(S(=O)(=O)N2CCOc3ncc(C(=O)NC(C)(C)C)cc32)c1 [Example 92, N-tert-butyl-1-(4-methylthiophen-2-ylsulfonyl)-2,3-dihydro-1H-pyrido[2,3-b][1,4]oxazine-7-carboxamide]
EC50 (human CB1 receptor): > 30 µM | EC50 (rat CB2 receptor): ≤ 30 nM

COCCN(C(=O)c1cnc2c(c1)N(S(=O)(=O)c1ccc(C(F)(F)F)cc1)CCO2)C(C)(C)C [Example 43, N-tert-butyl-N-(2-methoxyethyl)-1-(4-(trifluoromethyl)phenylsulf-onyl)-2,3-dihydro-1H-pyrido[2,3-b][1,4]oxazine-7-carboxamide]
inverse agonist mark, human CB1 receptor (human CB1 receptor; asterisk at the compound number): 11, 24, 25, 42, 43*, 67, 117*, 121, 124, 131, 132, 148, 150, 151, | EC50 (rat CB2 receptor): ≤ 30 nM

COCCCNC(=O)c1cnc2c(c1)N(S(=O)(=O)c1ccc(F)cc1)CCO2 [Example 12]
EC50 (human CB1 receptor): > 30 µM | EC50 (rat CB2 receptor): ≤ 30 nM

CN(C(=O)c1cnc2c(c1)N(S(=O)(=O)c1ccc(C(F)(F)F)cc1)CCO2)C(C)(C)C [Example 40, N-tert-butyl-N-methyl-1-(4-(trifluoromethyl)-phenylsulfonyl)-2,3-dihydro-1H-pyrido[2,3-b][1,4]oxazine-7-carboxamide]
EC50 (human CB1 receptor): > 30 µM | EC50 (rat CB2 receptor): ≤ 30 nM

CC(C)(CO)NC(=O)c1cnc2c(c1)N(S(=O)(=O)N1CCCCC1)CCO2 [Example 146, N-(1-hydroxy-2-methylpropan-2-yl)-1-(piperidin-1-ylsulfonyl)-2,3-dihydro-1H-pyrido[2,3-b][1,4]oxazine-7-carboxamide]
EC50 (human CB1 receptor): > 30 µM | EC50 (rat CB2 receptor): ≤ 30 nM

O=C(NCc1ccccc1)c1cnc2c(c1)N(S(=O)(=O)c1ccc(Cl)c(Cl)c1)CCO2 [Example 138, N-benzyl-1-(3,4-dichlorophenylsulfonyl)-2,3-dihydro-1H-pyrido[2,3-b][1,4]oxazine-7-carboxamide]
EC50 (human CB1 receptor): > 30 µM | EC50 (rat CB2 receptor): ≤ 30 nM

CC(C)(O)CNC(=O)c1cnc2c(c1)N(S(=O)(=O)c1ccc(Cl)c(Cl)c1)CCO2 [Example 98]
EC50 (human CB1 receptor): > 30 µM | EC50 (rat CB2 receptor): ≤ 30 nM

CC(C)(CN1CCOCC1)NC(=O)c1cnc2c(c1)N(S(=O)(=O)c1ccc(Cl)c(Cl)c1)CCO2 [Example 112, 1-(3,4-dichlorophenylsulfonyl)-N-(2-methyl-1-morpholinopropan-2-yl)-2,3-dihydro-1H-pyrido[2,3-b][1,4]oxazine-7-carboxamide]
EC50 (rat CB2 receptor): ≤ 30 nM
